Test results as given in the METLIN SMRT retention time set (Domingo-Almenara et al. 2019).

Test: gradient 5% acetonitrile 3 min, to 50% in 2 min, to 85% in 15 min, held 3 min, 100 µL/min
Conditions: column: Zorbax Extend-C18 2.1 x 50 mm; eluents: water / acetonitrile, 0.1% formic acid
How it was run: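 Retention time was recorded from adduct peaks, which were picked computationally and each inspected manually. Pure standards ran in mixtures of ~100 molecules on HPLC coupled to a quadrupole time-of-flight mass spectrometer, in positive and negative ionization mode, through a Zorbax Extend-C18 column (2.1 × 50 mm, 1.8 μm) at 100 μL/min. Eluents were water and acetonitrile, each with 0.1% formic acid.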

SMILES | RP-LC retention time
O=C(Cn1nc2c3sc(N4CCCCC4)nc3ncn2c1=O)Nc1cc(F)cc(F)c1 | 828 s
O=S(=O)(Cc1ccccc1Cl)N(Cc1ccsc1)C1CC1 | 1000 s
O=C(N[C@@H]1CN(c2ccncn2)C[C@H]1CO)c1ccc2ccccc2n1 | 604 s
CN1CCOc2ccc(NC(=O)C3CCN(S(C)(=O)=O)CC3)cc2C1=O | 590 s
CC(C)NC(=O)c1ccc(Nc2c(-c3ccccc3)nc3cnccn23)cc1 | 702 s
Cc1nc(-c2csc(S(=O)(=O)N3CCC(C(=O)NCCc4ccccc4)CC3)c2)no1 | 1060 s
O=C(NCc1ccc(F)cc1)Nc1ccc(-c2nc(-c3ccccc3)co2)cc1 | 1050 s
O=C(Oc1coc(CSc2ncccn2)cc1=O)c1cccs1 | 695 s
O=C1[C@@H]2Cc3c([nH]c4ccccc34)C(CCc3ccccc3)N2C(=O)CN1Cc1ccco1 (stereo not given in full) | 1000 s
C=C(C)COc1ccc2c(C)c(CCC(=O)N3CCN(c4ccccn4)CC3)c(=O)oc2c1C | 743 s
Cc1ccc(CNC(=O)C2CCCCC(=O)N2C)o1 (stereo not given) | 644 s
CCN(CC)C(=O)c1cc2c(s1)CCC(C(=O)NCc1ccc3c(c1)OCO3)C2 (stereo not given) | 830 s
CCc1noc(NC(C)=O)c1-c1ccc(OC)c(S(=O)(=O)NC(C)CC)c1 (stereo not given) | 746 s
CN(C)C(=O)CN1C(=O)CCSc2ccccc21 | 665 s
Cc1ccc(OCC(=O)N(Cc2ccc(N(C)C)cc2)C2CCS(=O)(=O)C2)cc1C (stereo not given) | 774 s
COC(=O)Cn1cnc2c(-c3ccc(Br)cc3)csc2c1=O | 943 s
O=C(NCc1cccc(Cl)c1)c1c(O)c2cccnc2n(-c2cccc(F)c2)c1=O | 1240 s
COc1ccc(CCNC(=O)CSc2c[nH]c3ccccc23)cc1OC | 717 s
N#CC1=C(SCC(=O)Nc2nccs2)NC(=O)CC1c1ccccc1F (stereo not given) | 696 s
Fc1ccccc1Cn1cccc1-c1nc(-c2ccc3c(c2)OCO3)no1 | 1230 s
Cc1ccc2nc(-c3ccc(C)c(NC(=O)C(C)(C)C)c3)[nH]c2c1 | 680 s
Cc1nccn1C1CN(C(=O)c2ccc3cc[nH]c3c2)C1 | 582 s
O=S(=O)(Cc1ccc(Cl)cc1)Nc1cccn2ncnc12 | 800 s

SMILES | RP-LC retention time
O=C(Cc1ccc(Cl)cc1)N1CCc2nc(-c3ccc(Cl)cc3)ncc2C1 | 1130 s
Cn1c(=O)sc2cc(S(=O)(=O)N3CCC(C(=O)N4CCCC4)CC3)ccc21 | 702 s
Cc1cc(C)c(S(=O)(=O)N2CC(c3nc(Cc4ccccc4)no3)C2)c(C)c1 | 1190 s
O=C(Nc1ccc2c(c1)CN(C(=O)C1CC1)CC2)NC1CC1 | 632 s
C#CCSc1nc(=O)n2ccc(C)cc2n1 | 645 s
O=C(Cn1c(-c2cccs2)cc2cc(F)ccc21)NCCN1CCOCC1 | 680 s
CCc1nc2cc(-c3noc(-c4ccc(C#N)cc4)n3)ccc2o1 | 1050 s
O=C(Cc1csc(SCc2ccncc2)n1)N1CCN(c2ccccc2)CC1 | 582 s
O=C(CN1N=C(C(=O)Nc2ccc(F)cc2)CCC1=O)Nc1cc(F)ccc1F | 831 s
CCN(CC)c1nc2cc(C(=O)OC)ccc2c(=O)n1-c1cccc(F)c1 | 1120 s
O=C(CN1C(=O)CCc2cc(S(=O)(=O)N3CCCCC3)ccc21)NC1CCCc2ccccc21 (stereo not given) | 935 s
Cc1cc(=O)n(CC(=O)Nc2ccc(F)c(Cl)c2)c(N2CCOCC2)n1 | 677 s
COc1ccc(NC(=O)c2cc(C(C)(C)C)n3nccc3n2)cc1OC | 1110 s
CNC(=O)C1CCCN(c2nc3ncn(CC(=O)Nc4cccc(Cl)c4)c(=O)c3s2)C1 (stereo not given) | 672 s
Cc1cc(F)ccc1NC(=O)c1nnn(-c2ccc(F)cc2)c1-c1cccnc1 | 915 s
COc1ccc(Nc2c(C(=O)N3CCC(C)CC3)cnc3nc(C)ccc23)c(OC)c1 | 662 s
CC(CCc1ccccc1)NC(=O)C1CCN(S(C)(=O)=O)c2cc(Cl)ccc2O1 (stereo not given) | 1070 s
Cc1ccc(Cl)cc1NC(=O)NC(C)C(=O)N1CCc2ccccc21 (stereo not given) | 945 s
CN1C(=O)c2cc(C(=O)NCc3ccccc3Br)nn2CC1(C)C(=O)NC1CCCC1 (stereo not given) | 828 s
Cc1ccc(C)c(S(=O)(=O)N2CC(c3nc(Cc4ccccc4)no3)C2)c1 | 1040 s
COc1ccccc1N1CCN(c2cc(SCC(=O)NCc3ccccc3)ncn2)CC1 | 823 s
Cc1ccc(-n2c(=O)c3c(cc(C)n3C)n(CC(=O)Nc3ccc(Br)cc3F)c2=O)cc1 | 944 s
O=C(Nc1ccc(F)cc1F)Nc1c(-c2ccccc2)nc2ccccn12 | 660 s

SMILES | RP-LC retention time
Cc1ccc(C(=O)NC(C)C(=O)Nc2nc3ccccc3[nH]2)cc1 (stereo not given) | 648 s
Cc1cc(C)cc(NC(=O)N2CCCC2c2nncn2C2CCCC2)c1 (stereo not given) | 722 s
Cc1cc(C)n(CCC(=O)NCC23CCC=C2N(CC2CC2)C(=O)CC3)n1 (stereo not given) | 698 s
O=C(CCC1CCCN(c2cc(NC3CC3)ncn2)C1)NCc1ccc(F)cc1 (stereo not given) | 676 s
CCC(C(=O)NCC1CCCO1)n1c2ccccc2c2cnn(C)c(=O)c21 (stereo not given) | 768 s
CCOc1ccccc1C(=O)NC1CCN(c2cc(-c3cccs3)[nH]n2)C1 (stereo not given) | 769 s
COc1cc(OC)c(NC(=O)Cn2ncc3c(c2=O)N(C)C(=O)CS3)cc1Cl | 695 s
O=c1n(Cc2cccc(F)c2)nc2ccc(S(=O)(=O)N3CCOCC3)cn12 | 800 s
CCCNC(=O)Cn1ccc2ccc(-c3nnc(C)o3)cc21 | 678 s
CN(C)CCNC(=O)Cc1cccn1-c1ccc(Cl)cc1 | 618 s
O=C(Nc1cnc(N2CCOCC2)nc1)c1ccccc1Br | 725 s
COc1ccccc1CNC(=O)CN1CCCC1=O | 631 s
Cc1ccc2ncn(C3CCN(S(=O)(=O)c4ccccc4C)CC3)c(=O)c2c1 | 929 s
COc1ccc(CNC(=O)Cn2c(=O)c3c(C(=O)N4CCCCC4)cc(C)nc3n(C)c2=O)cc1 | 761 s
CC1CCC[C@H](O)CCCCCc2cc(O)cc(O)c2C(=O)O1 (stereo not given in full) | 862 s
CC[C@H](C)NC(=O)Cc1nnc(-c2cccc(C)c2)o1 | 767 s
Cn1c(CCCC(=O)O)nc2cc(N(CCCl)CCCl)ccc21 | 747 s
CNC(=O)N1CCC(C2CCN(C(=O)c3ccc(Cl)s3)C2)CC1 (stereo not given) | 705 s
O=C(Nc1ccccc1)C1CCCN(C(=O)C2Sc3ccccc3NC2=O)C1 (stereo not given) | 772 s
Cn1cc(C(=O)Nc2ccc3c(c2)CCC3)c(S(=O)(=O)N2CCSCC2)n1 | 1040 s
Cc1ncsc1CN1CCc2nn(Cc3ccccc3)c(=O)n2CC1 | 604 s
CCOC(=O)c1cccc(NC(=O)Nc2cccc(-c3ccc(N4CCOCC4)nn3)c2)c1 | 742 s
CC(C)CNC(=O)CCc1nc2ccccc2n(CC(=O)NCc2ccccc2Cl)c1=O | 822 s

SMILES | RP-LC retention time
COc1ccc(NC(=O)C2CCCN(c3nc4ccccc4nc3OC)C2)cc1OC (stereo not given) | 982 s
COc1ccc(-c2nnc(Cc3nc(C(C)C)no3)o2)cc1 | 858 s
O=C1CN(C(=O)Cc2ccc(OC(F)(F)F)cc2)C2(CCCC2)CN1 | 790 s
CCC(C)NC(=O)c1c(C)sc2ccn(C)c(=O)c12 (stereo not given) | 654 s
CC1CCN(S(=O)(=O)c2ccc3c(c2)CCCC(=O)N3CC(=O)N2CCc3ccccc32)CC1 | 1030 s
CN(CCCNC(=O)c1ccc2c(c1)NC(=O)C1CCCCN21)Cc1ccccc1 (stereo not given) | 617 s
COc1ccc(C)cc1NC(=O)Cn1cnc2c(sc3nc(-c4ccccc4)ccc32)c1=O | 1090 s
COc1ccc(N2CCN(S(=O)(=O)c3cc(-c4nc(C)cs4)cs3)CC2)cc1 | 1070 s
Cc1ccsc1C(=O)Nc1ccccc1SCc1nnc(-c2ccccc2)o1 | 1080 s
CC(C)CCNC(=O)C1CCN(c2nc3ccsc3c(=O)n2Cc2ccccc2)CC1 | 890 s
Brc1ccc(-c2ccc(CNCC3CCCO3)o2)cc1 (stereo not given) | 703 s
O=C(c1cccc(C(F)(F)F)c1)N1CCN(c2nc(CN3CCCCC3)cs2)CC1 | 684 s
OCCOCCNCc1ccc(-c2ccc(F)cc2)o1 | 620 s
O=c1ccc(-c2ccc3c(c2)OCO3)nn1Cc1nc(-c2ccc3c(c2)OCO3)no1 | 934 s
CCN1CCn2cc(C(=O)NCc3cccc(Br)c3)nc2C1 | 600 s
CCNc1nc(NCC)n2c(SCC(=O)c3cccc(Br)c3)nnc2n1 | 680 s
Cc1ncc2c(n1)C[C@@H]1CC[C@H]2N1S(=O)(=O)Cc1ccccc1 | 706 s
CC(C)(C)c1cc(NC(=O)CSCc2ccccc2)n(CCO)n1 | 772 s
CC(=O)N1CCc2cc(N3CC(C(=O)NC(C)c4ccc(C)cc4C)CC3=O)ccc21 (stereo not given) | 772 s
CN(C(=O)Cc1ccc(Cl)c(Cl)c1)C(CN1CCCC1)c1cccc(OCC(=O)O)c1 (stereo not given) | 770 s
O=C(Cn1cnc2nc3c(cc2c1=O)CCCC3)N1CCN(C(=O)c2ccco2)CC1 | 622 s
